Source: patent US20260234159A1, “SMALL MOLECULE TREATMENT OF FATTY LIVER DISEASE AND HCC” (SCANDIEDGE THERAPEUTICS AB, priority 2023, published 2026)

What was measured:
Format in all cases: cell-based, human
c-Myc = test: Nuclear protein western blot, c-Myc; conditions: 10 μM, 2 days
Method: (§1) HepG2 cells were seeded into a 6-well plate at 400,000 cells per well. After treatment with 10 μM of JNK-IN-5A and its derivatives for two days, lysates were harvested with CelLytic M (C2978, Sigma-Aldrich). 20 μg lysate was prepared with 2× Laemmli Sample Buffer (1610737, Biorad). SDS PAGE were performed using Mini-PROTEAN® TGX™ Precast Gels (Bio-Rad) and transferred using Trans-Blot® Turbo™ Transfer System (Bio-Rad). Primary antibody, PARP (95425, Cell signalling), Caspase 3 (ab32042, abcam), Bcl-2 (ab182858), STAT1 (HPA000982, Merk), PKL (06653, Sigma), PKM (4053S, Cell signalling), GAPDH (ab8245, abcam), P53 (ab32389, abcam), p21 (ab109199, abcam), p-S349 p62 (ab211324, abcam), p62 (ab109012, abcam), c-Myc (ab32072, abcam), GPX4 (ab125066, abcam), MMP9 (MA5-32705, Invitrogen), β-actin (ab8227, abcam), and α-tubulin (ab7291, abcam) were blotted overnight and Goat Anti-Rabbit HRP (ab205718) and goat anti-mouse IgG-HRP (sc2005, Santa Cruz Biotechnology, Inc.) were blotted for secondary antibody for one hour. ImageQuantTMLAS 500 (29-0050-63, GE) was used to detect protein bands.

PARP = test: Western blot, cleaved PARP; conditions: 10 μM, 2 days
Method: as §1

Caspase 3 = test: Western blot, active caspase 3; conditions: 10 μM, 2 days
Method: as §1

HepG2 cells [1] = test: RNA sequencing, GSEA and PROGENy pathway analysis
Method: RNA samples for RNA sequencing were extracted with RNeasy Plus Mini Kit (74134, QIAGEN). RIN score of total RNA samples was measured using RNA 6000 Nano kit (5067-1511, Agilent). 2100 Bioanalyzer Instrument (G2939BA, Agilent) was used for RIN score test using electrophoresis. Samples with a […] were submitted to SZA Omics, Istanbul for RNA sequencing analysis.
The quality, quantity, and RNA integrity number (RIN) of the samples were assessed with NanoDrop (Thermo Fisher, USA), and Bioanalyzer (2100, Agilent Technology, USA). For the RNA samples, the ratio of absorbance at 260 and 280 nm (A260/280) of […], A260/230 of 2.0-2.2, and RIN>8.0 are acceptable. All samples passed the quality control.
The Illumina Stranded Total RNA Prep, Ligation with Ribo-Zero Plus kit was used for the construction of NGS libraries from the samples with acceptable quality parameters. In short, RNA samples were sequenced with 2×100 paired-end reads by the NovaSeq 6000 system. Raw sequencing data (.bcl) was demultiplexed and converted to FASTQ files with DRAGEN Software (v3.9.5). The data was delivered in FASTQ format using Illumina 1.8 quality scores.
The quality of FASTQ files was assessed by FastQC (v0.11.9) software to ensure the quality of every sequenced sample. Kallisto (v0.48.0)16 was used to quantify the count and transcripts per million (TPM) values of transcripts based on the Homo sapiens reference cDNA (version GRCh38, Ensembl release 110). The transcript read counts and TPM values were assembled to gene level using the R package tximport (v1.28.0), with only protein-coding transcripts and genes included. The lowly expressed genes with an average count below 5 were filtered out, resulting in a total of 14,592 genes for the downstream analysis.
Differential expression analysis was conducted using the R package DESeq2 (v1.40.2) followed by the Benjamini-Hochberg procedure to correct p-values. […]

GPX4 = test: Western blot, GPX4; conditions: compared to the control
Method: as §1

HepG2 cells [2] = test: DAPI and PI staining for necrotic cell death; conditions: 10 μM, 2 days
Method: HepG2 cells were treated with 10 μM of the JNK-IN-5A derivatives for 2 days and cells were stained with DAPI (Blue) and PI (Red) for 30 min, at live cells. PI positive necrotic cells were counted and plotted.

p53 = test: Nuclear protein western blot, p53; conditions: 10 μM, 2 days; compared to sorafenib and regorafenib
Method: as §1

| Compound | nuclear c-Myc expression (c-Myc) | increase in cleaved PARP vs untreated control (PARP) [times] | active caspase 3 levels (Caspase 3) [times] | inhibition of cell cycle-related pathways (E2F targets, G2M checkpoint), GSEA (HepG2 cells [1]) | p53 pathways activity (PROGENy) (HepG2 cells [1]) | GPX4 expression levels (GPX4) [times] | necrotic cell death (PI staining) (HepG2 cells [2]) | nuclear-localized p53 (p53) |
| --- | --- | --- | --- | --- | --- | --- | --- | --- |
| N#Cc1c(NC(=O)c2cccc3ccccc23)sc2c1CCCC2 [JNK-IN-5A, N-(3-cyano-4,5,6,7-tetrahydrobenzo[b]thiophen-2-yl)-1-naphthamide] | significantly reduced |  |  |  |  |  |  |  |
| COc1ccc(C(=O)Nc2sc3c(c2C#N)CCCCC3)cc1OC [PKL-A135, N-(3-cyano-5,6,7,8-tetrahydro-4H-cyclohepta[b]thiophen-2-yl)-3,4-dimethoxy-benzamide] |  | 78.31 | 11.85 | most potent inhibitor | significantly activated | 0.58 | significantly induced necrotic cell death | significant increase |
| N#Cc1c(NC(=O)c2cccc3ccccc23)sc2c1CCN(CC(=O)Nc1cccc(Br)c1)C2 [PKL-B171] | most substantial decrease | 87.97 | 14.66 |  | significantly activated | 0.88 | significantly induced necrotic cell death | significant increase |
